The values that follow come from patent US20230365537A1, “POLO LIKE KINASE 4 INHIBITORS” (ORIC Pharmaceuticals, Inc., priority 2021, published 2023).

In one assay the target is human recombinant PLK4 (Homo sapiens (Human), UniProt O00444). Description: PLK4 Biochemical Assay (ADP-Glo). To be noted: 0.5 nM PLK4, 8.0 µM ATP, 4.7 µM MBP, 6 hours at RT. In a few lines: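 Recombinant human PLK4 (added at 1.0 nM) was preincubated 15 min at RT with compound in 50 mM HEPES pH 7.5, 10 mM MgCl2, 1 mM EGTA, 1 mM DTT, 0.01% Brij-35, 0.01% BSA. ADP formed was detected by ADP-Glo luminescence (40 min ATP depletion, 30 min detection). IC50 came from a four-parameter fit.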
human recombinant PLK4, sequence (O00444 whole entry): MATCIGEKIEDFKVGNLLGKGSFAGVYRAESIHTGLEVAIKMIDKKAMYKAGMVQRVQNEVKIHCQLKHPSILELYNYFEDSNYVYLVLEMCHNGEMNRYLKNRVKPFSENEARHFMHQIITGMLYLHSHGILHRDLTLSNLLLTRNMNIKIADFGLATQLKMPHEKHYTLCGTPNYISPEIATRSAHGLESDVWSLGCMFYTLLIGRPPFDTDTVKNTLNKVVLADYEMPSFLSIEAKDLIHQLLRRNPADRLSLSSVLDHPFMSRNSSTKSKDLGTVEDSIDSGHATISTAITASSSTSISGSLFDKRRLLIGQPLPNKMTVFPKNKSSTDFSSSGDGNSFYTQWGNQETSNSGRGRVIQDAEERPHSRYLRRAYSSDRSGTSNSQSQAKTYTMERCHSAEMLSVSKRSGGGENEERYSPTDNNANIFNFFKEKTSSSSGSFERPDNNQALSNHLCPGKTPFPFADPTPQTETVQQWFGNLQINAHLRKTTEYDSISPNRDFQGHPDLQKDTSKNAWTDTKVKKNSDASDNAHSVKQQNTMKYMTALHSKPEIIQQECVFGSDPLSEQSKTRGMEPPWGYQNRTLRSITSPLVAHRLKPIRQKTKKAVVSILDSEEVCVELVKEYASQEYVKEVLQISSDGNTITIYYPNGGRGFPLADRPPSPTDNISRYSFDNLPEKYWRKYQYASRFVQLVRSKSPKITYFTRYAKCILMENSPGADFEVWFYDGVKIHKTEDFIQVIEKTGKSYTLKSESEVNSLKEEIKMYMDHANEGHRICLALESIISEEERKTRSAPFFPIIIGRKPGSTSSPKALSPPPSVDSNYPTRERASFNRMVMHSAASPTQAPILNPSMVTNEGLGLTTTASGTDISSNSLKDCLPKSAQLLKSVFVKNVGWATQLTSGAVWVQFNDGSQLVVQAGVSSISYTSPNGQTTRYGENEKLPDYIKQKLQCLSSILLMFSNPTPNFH
On the technique in general: ADP-Glo first removes unused ATP, then detects ADP through luciferase.

In a further assay the test system is CHP-134 cells. Description: CHP134 CellTiter-Glo (CTG) Assay. The class given is cell-based. To be noted: Homo sapiens, CHP-134, 120 h, 5 days, viable cells by CellTiter-Glo. In a few lines:
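CHP-134 cells seeded at 200 cells/well for 16 h, then given nine 1:3 serial dilutions in quadruplicate at 37° C, 5% CO2. Viable cells measured by CellTiter-Glo luminescence after 5 days; IC50 calculated from curves.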
In general terms: Cellular ATP, detected with luciferase, serves as a proxy for viable cell number.

The target of assay [1] is human recombinant Aurora A (Homo sapiens (Human), UniProt O14965). As to the kind of experiment: Aurora A Kinase Biochemical Assay (ADP-Glo). The note with it: ratio of Aurora A IC50 to PLK4 IC50 (selectivity).
human recombinant Aurora A, sequence (O14965 whole entry): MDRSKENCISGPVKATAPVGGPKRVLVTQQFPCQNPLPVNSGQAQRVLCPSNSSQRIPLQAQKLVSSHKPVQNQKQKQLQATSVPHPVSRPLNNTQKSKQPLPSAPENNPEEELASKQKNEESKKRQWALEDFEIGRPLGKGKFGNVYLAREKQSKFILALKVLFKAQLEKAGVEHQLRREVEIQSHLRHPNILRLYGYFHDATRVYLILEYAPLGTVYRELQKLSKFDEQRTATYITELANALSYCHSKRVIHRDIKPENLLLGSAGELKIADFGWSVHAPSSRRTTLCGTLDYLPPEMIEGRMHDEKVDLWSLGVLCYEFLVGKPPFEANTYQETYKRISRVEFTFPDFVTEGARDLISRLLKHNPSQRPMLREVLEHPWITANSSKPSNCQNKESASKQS
Assay [2] deals with human recombinant Aurora B (Homo sapiens (Human), UniProt Q96GD4). Description: Aurora B Kinase Biochemical Assay (ADP-Glo). The note with it: ratio of Aurora B IC50 to PLK4 IC50 (selectivity). In a few lines: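 Recombinant human Aurora B (20 nM in pH 7.5 HEPES buffer with MgCl2, EGTA, DTT, Brij-35, BSA) preincubated with compound 15 min at RT. ADP formed quantified by ADP-Glo luminescence after ATP depletion (40 min) and detection (30 min). IC50 from four-parameter non-linear regression.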
human recombinant Aurora B, sequence (Q96GD4 whole entry): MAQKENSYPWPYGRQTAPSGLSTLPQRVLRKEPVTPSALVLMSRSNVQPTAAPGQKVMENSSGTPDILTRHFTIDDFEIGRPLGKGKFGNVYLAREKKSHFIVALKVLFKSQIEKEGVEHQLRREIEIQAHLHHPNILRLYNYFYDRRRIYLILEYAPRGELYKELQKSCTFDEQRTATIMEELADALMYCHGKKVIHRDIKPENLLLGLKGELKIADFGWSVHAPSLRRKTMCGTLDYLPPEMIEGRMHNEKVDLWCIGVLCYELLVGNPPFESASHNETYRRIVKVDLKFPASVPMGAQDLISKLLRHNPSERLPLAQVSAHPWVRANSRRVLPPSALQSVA

Structures are written as SMILES.

On to `COc1ccc2c(c1)[C@]1(C[C@H]1c1ccc3c(Nc4nc(N5CCC5)ncc4OC)n[nH]c3c1)C(=O)N2` [Example 157, (1R,2S)-2-(3-{[2-(azetidin-1-yl)-5-methoxypyrimidin-4-yl]amino}-1H-indazol-6-yl)-5′-methoxyspiro[cyclopropane-1,3′-indol]-2′(1′H)-one], for which the concentration for half-maximal inhibition (IC50) on human recombinant PLK4 worked out at 1.95 nM; with CHP-134 cells, 288 nM. The “[Aurora A IC50 (nM)]/[PLK4 IC50 (nM)]” value in assay [1] is 510.6317. Also, in assay [2], the “[Aurora B IC50 (nM)]/[PLK4 IC50 (nM)]” value is recorded as 303.9548.

With `COc1ccc2c(c1)[C@]1(C[C@H]1c1ccc3c(Nc4nc(C)nc5c4CCC5)n[nH]c3c1)C(=O)N2` [Example 159, (1R,2S)-5′-methoxy-2-{3-[(2-methyl-6,7-dihydro-5H-cyclopenta[d]pyrimidin-4-yl)amino]-1H-indazol-6-yl}spiro[cyclopropane-1,3′-indol]-2′(1′H)-one], the half-maximal inhibitory concentration (IC50) on human recombinant PLK4 was determined as 1.96 nM; with CHP-134 cells it was 1300 nM. Further, the “[Aurora A IC50 (nM)]/[PLK4 IC50 (nM)]” value in assay [1] is on record as 309.7350. Moreover, in assay [2], the “[Aurora B IC50 (nM)]/[PLK4 IC50 (nM)]” value stood at 58.0530.

As to `CCc1ncc(OC)c(Nc2n[nH]c3cc([C@@H]4C[C@@]45C(=O)Nc4ccc(OC)cc45)ccc23)n1` [Example 160, (1R,2S)-2-{3-[(2-ethyl-5-methoxypyrimidin-4-yl)amino]-1H-indazol-6-yl}-5′-methoxyspiro[cyclopropane-1,3′-indol]-2′(1′H)-one], the IC50 is 1.93 nM on human recombinant PLK4 and 310 nM with CHP-134 cells. Also, in assay [1], the “[Aurora A IC50 (nM)]/[PLK4 IC50 (nM)]” value was found to be 545.5487. Also, in assay [2], the “[Aurora B IC50 (nM)]/[PLK4 IC50 (nM)]” value came to 149.5859.

As to `COc1ccc2c(c1)[C@]1(C[C@H]1c1ccc3c(Nc4cc5cccnc5cc4OC)n[nH]c3c1)C(=O)N2` [Example 161, (1R,2S)-5′-methoxy-2-{3-[(7-methoxyquinolin-6-yl)amino]-1H-indazol-6-yl}spiro[cyclopropane-1,3′-indol]-2′(1′1H)-one], the half-maximal inhibitory concentration (IC50) came to 2.21 nM on human recombinant PLK4 and 352 nM in the assay with CHP-134 cells. For the same molecule, the “[Aurora A IC50 (nM)]/[PLK4 IC50 (nM)]” value in assay [1] was 291.4932. Besides, the “[Aurora B IC50 (nM)]/[PLK4 IC50 (nM)]” value in assay [2] worked out at 258.4163.

Regarding `COc1ccc2c(c1)[C@]1(C[C@H]1c1ccc3c(Nc4nc5ccccc5cc4OC)n[nH]c3c1)C(=O)N2` [Example 163, (1R,2S)-5′-methoxy-2-{3-[(3-methoxyquinolin-2-yl)amino]-1H-indazol-6-yl}spiro[cyclopropane-1,3′-indol]-2′(1′H)-one], the concentration for half-maximal inhibition (IC50) was found to be 1.52 nM on human recombinant PLK4 and 226 nM in the assay with CHP-134 cells. For the same molecule, the “[Aurora A IC50 (nM)]/[PLK4 IC50 (nM)]” value in assay [1] is 2164.0420. In addition, the “[Aurora B IC50 (nM)]/[PLK4 IC50 (nM)]” value in assay [2] was found to be 389.4357.

Turning to `COc1cnc(OC)c(Nc2n[nH]c3cc([C@@H]4C[C@@]45C(=O)Nc4ccc(OC)cc45)ccc23)c1` [Example 164, (1R,2S)-2-{3-[(2,5-dimethoxypyridin-3-yl)amino]-1H-indazol-6-yl}-5′-methoxyspiro[cyclopropane-1,3′-indol]-2′(1′H)-one], the values for the IC50 on human recombinant PLK4 and with CHP-134 cells were 6.28 nM and 1640 nM, respectively. Also, the “[Aurora A IC50 (nM)]/[PLK4 IC50 (nM)]” value in assay [1] stood at 397.0049. Besides, the “[Aurora B IC50 (nM)]/[PLK4 IC50 (nM)]” value in assay [2] is 161.2235.

As to `COc1ccc2c(c1)[C@]1(C[C@H]1c1ccc3c(Nc4nc(Cl)nc5ccoc45)n[nH]c3c1)C(=O)N2` [Example 165, (1R,2S)-2-{3-[(2-chlorofuro[3,2-d]pyrimidin-4-yl)amino]-1H-indazol-6-yl}-5′-methoxyspiro[cyclopropane-1,3′-indol]-2′(1′H)-one], the IC50 was found to be 4.68 nM at human recombinant PLK4 and 1060 nM in the assay with CHP-134 cells. Also, the “[Aurora A IC50 (nM)]/[PLK4 IC50 (nM)]” value in assay [1] stood at 111.2559. Further, the “[Aurora B IC50 (nM)]/[PLK4 IC50 (nM)]” value in assay [2] is 76.9329.

With `COc1ccc2c(c1)[C@]1(C[C@H]1c1ccc3c(Nc4ccc(C(=O)N(C)C)nc4OC)n[nH]c3c1)C(=O)N2` [Example 166, 6-methoxy-5-({6-[(1R,2S)-5′-methoxy-2′-oxo-1′,2′-dihydrospiro[cyclopropane-1,3′-indol]-2-yl]-1H-indazol-3-yl}amino)-N,N-dimethylpyridine-2-carboxamide], the IC50 is 0.802 nM on human recombinant PLK4 and 80.6 nM with CHP-134 cells. The “[Aurora A IC50 (nM)]/[PLK4 IC50 (nM)]” value in assay [1] stood at 1151.3716. Moreover, the “[Aurora B IC50 (nM)]/[PLK4 IC50 (nM)]” value in assay [2] was 68.4539.

`COc1ccc2c(c1)[C@]1(C[C@H]1c1ccc3c(Nc4nc(N5CCCC5)ncc4OC)n[nH]c3c1)C(=O)N2` [Example 167, (1R,2S)-5′-methoxy-2-(3-{[5-methoxy-2-(pyrrolidin-1-yl)pyrimidin-4-yl)amino}-1H-indazol-6-yl)spiro[cyclopropano-1,3′-indol]-2′(1′H)-one]: the concentration for half-maximal inhibition (IC50) at human recombinant PLK4 was found to be 1.18 nM; with CHP-134 cells, 212 nM. The “[Aurora A IC50 (nM)]/[PLK4 IC50 (nM)]” value in assay [1] came to 295.5932. Further, in assay [2], the “[Aurora B IC50 (nM)]/[PLK4 IC50 (nM)]” value is 916.9492.

Take `COc1ccc2c(c1)[C@]1(C[C@H]1c1ccc3c(Nc4nc(N5CC[C@@H](F)C5)ncc4OC)n[nH]c3c1)C(=O)N2` [Example 169]: the IC50 came out at 0.995 nM on human recombinant PLK4 and 188 nM in the assay with CHP-134 cells. For the same molecule, in assay [1], the “[Aurora A IC50 (nM)]/[PLK4 IC50 (nM)]” value is on record as 666.9347. The “[Aurora B IC50 (nM)]/[PLK4 IC50 (nM)]” value in assay [2] amounted to 431.4573.

As for `COc1ccc2c(c1)[C@]1(C[C@H]1c1ccc3c(Nc4nc(N5CCC(F)(F)C5)ncc4OC)n[nH]c3c1)C(=O)N2` [Example 170, (1R,2S)-2-(3-{[2-(3,3-difluoropyrrolidin-1-yl)-5-methoxypyrimidin-4-yl]amino}-1H-indazol-6-yl)-5′-methoxyspiro[cyclopropane-1,3′-indol]-2′(1′H)-one], the values for the half-inhibitory concentration (IC50) at human recombinant PLK4 and in the assay with CHP-134 cells were 1.36 nM and 326 nM, respectively. Also, in assay [1], the “[Aurora A IC50 (nM)]/[PLK4 IC50 (nM)]” value came out at 694.1090. Moreover, the “[Aurora B IC50 (nM)]/[PLK4 IC50 (nM)]” value in assay [2] was determined as 587.9234.

On to `COc1ccc2c(c1)[C@]1(C[C@H]1c1ccc3c(Nc4nc(Cl)nc5ccn(C)c45)n[nH]c3c1)C(=O)N2` [Example 171, (1R,2S)-2-{3-[(2-chloro-5-methyl-5H-pyrrolo[3,2-d]pyrimidin-4-yl)amino]-1H-indazol-6-yl}-5′-methoxyspiro[cyclopropane-1,3′-indol]-2′(1′H)-one], for which the half-inhibitory concentration (IC50) on human recombinant PLK4 turned out to be 5.87 nM; in the assay on CHP-134 cells, 1520 nM. The “[Aurora A IC50 (nM)]/[PLK4 IC50 (nM)]” value in assay [1] is recorded as 1176.6309. For the same molecule, the “[Aurora B IC50 (nM)]/[PLK4 IC50 (nM)]” value in assay [2] is given as 259.2403.

In the case of `COc1ccc2c(c1)[C@]1(C[C@H]1c1ccc3c(Nc4nc(C#N)ncc4OC)n[nH]c3c1)C(=O)N2` [Example 172, 5-methoxy-4-({6-[(1R,2S)-5′-methoxy-2′-oxo-1′,2′-dihydrospiro[cyclopropane-1,3′-indol]-2-yl]-1H-indazol-3-yl}amino)pyrimidine-2-carbonitrile], the IC50 worked out at 4.09 nM at human recombinant PLK4 and 1260 nM in the assay on CHP-134 cells. The “[Aurora A IC50 (nM)]/[PLK4 IC50 (nM)]” value in assay [1] is 324.94. In addition, the “[Aurora B IC50 (nM)]/[PLK4 IC50 (nM)]” value in assay [2] worked out at 202.96.

In the case of `COc1ccc2c(c1)[C@]1(C[C@H]1c1ccc3c(Nc4nc(N5CC(F)(F)C5)ncc4OC)n[nH]c3c1)C(=O)N2` [Example 173, (1R,2S)-2-(3-([2-(3,3-difluoroazetidin-1-yl)-5-methoxypyrimidin-4-yl]amino}-1H-indazol-6-yl)-5′-methoxyspiro[cyclopropane-1,3′-indol]-2′(1 ‘H)-one], the IC50 was 2.67 nM on human recombinant PLK4 and 332 nM in the assay on CHP-134 cells. Moreover, the “[Aurora A IC50 (nM)]/[PLK4 IC50 (nM)]” value in assay [1] worked out at 301.0878. In addition, the “[Aurora B IC50 (nM)]/[PLK4 IC50 (nM)]” value in assay [2] is given as 314.9287.

As to `COc1ccc2c(c1)[C@]1(C[C@H]1c1ccc3c(Nc4nc(N5CC(F)C5)ncc4OC)n[nH]c3c1)C(=O)N2` [Example 174, (1R,2S)-2-(3-{[2-(3-fluoroazetidin-1-yl)-5-methoxypyrimidin-4-yl]amino}-1H-indazol-6-yl)-5′-methoxyspiro[cyclopropane-1,3′-indol]-2′(1′H)-one], the figures for the 50% inhibitory concentration (IC50) at human recombinant PLK4 and in the assay with CHP-134 cells were 1.92 nM and 392 nM, respectively. In addition, the “[Aurora A IC50 (nM)]/[PLK4 IC50 (nM)]” value in assay [1] amounted to 365.8511. Moreover, the “[Aurora B IC50 (nM)]/[PLK4 IC50 (nM)]” value in assay [2] was found to be 353.7741.

For the molecule `CCS(=O)(=O)c1ccc(OC)c(Nc2n[nH]c3cc([C@@H]4C[C@@]45C(=O)Nc4ccc(OC)cc45)ccc23)c1` [Example 175, (1R,2S)-2-{3-[5-(ethanesulfonyl)-2-methoxyanilino]-1H-indazol-6-yl}-5′-methoxyspiro[cyclopropane-1,3′-indol]-2′(1′H)-one], the IC50 on human recombinant PLK4 was found to be 3.57 nM; in the assay on CHP-134 cells, 2210 nM. In addition, the “[Aurora A IC50 (nM)]/[PLK4 IC50 (nM)]” value in assay [1] is listed as 14009.5265. In assay [2], the “[Aurora B IC50 (nM)]/[PLK4 IC50 (nM)]” value is 8627.0664.

With `COc1ccc2c(c1)[C@]1(C[C@H]1c1ccc3c(Nc4cc(C(=O)N(C)C)ccc4OC)n[nH]c3c1)C(=O)N2` [Example 176, 4-methoxy-3-({6-[(1R,2S)-5′-methoxy-2′-oxo-1′,2′-dihydrospiro[cyclopropane-1,3′-indol]-2-yl]-1H-indazol-3-yl}amino)-N,N-dimethylbenzamide], the results for the IC50 on human recombinant PLK4 and with CHP-134 cells were 2.84 nM and 1550 nM, respectively. Further, the “[Aurora A IC50 (nM)]/[PLK4 IC50 (nM)]” value in assay [1] was found to be 1725.2902. Also, in assay [2], the “[Aurora B IC50 (nM)]/[PLK4 IC50 (nM)]” value is recorded as 1300.3869.

By IC50 is commonly meant the concentration at which inhibition is half-maximal.
